From paper PMC7389528, “Anti-tubercular derivatives of rhein require activation by the monoglyceride lipase Rv0183” (The Cell Surface, 2020)
Converted amounts (≈) assume the structure as drawn. “And” between values parts separate entries of the source, which are not always exact repeats. Identical values can stand only once. “Also recorded” adds a separate entry of the source.

Columns and labels:
[1] = tested on: Mtb clinical isolate 14231; test: microbe, parasite or virus in culture; assay type: cell-based; details: Mycobacterium tuberculosis
Rv0183-S172P = Rv0183-S172P (Mycobacterium tuberculosis, UniProt O07427, S172P); assay type: biochemical, M. bovis BCG
[2] = tested on: Mtb clinical isolate 12611; test: microbe, parasite or virus in culture; assay type: cell-based; details: Mycobacterium tuberculosis
WT Rv0183 (BCG_0220) = target: T1, WT Rv0183 (BCG_0220) (Mycobacterium tuberculosis, UniProt O07427); assay type: biochemical; details: 10 μM WT Rv0183, 5 μg compound, 37 °C, 1 h
T1 construct: poly-histidine (pET28a vector-encoded) (N); made in house; host or cells: E. coli SHuffle T7 (K12), pET28a

Rv0183-VAAQD137D = Rv0183-VAAQD137D (Mycobacterium tuberculosis, UniProt O07427, DEL137-140); assay type: biochemical, M. bovis BCG
M. bovis BCG = assay type: cell-based
[3] = tested on: M. bovis BCG HTB-04 mutant 2 (BCG_0220-S172P); assay type: cell-based

SMILES | MIC [1] [µM] | enzyme activity on compound (TLC) (Rv0183-S172P) | MIC [2] [µM] | enzyme activity on compound (TLC) (WT Rv0183 (BCG_0220)) | enzyme activity on compound (TLC) (Rv0183-VAAQD137D) | frequency of resistance (M. bovis BCG) | IC50 [3]
O=C(OCCCCCl)c1cc(O)c2c(c1)C(=O)c1cccc(O)c1C2=O [HTB-03] | 2.4 (≈ 0.899 µg/mL) | no activity | 2.64 (≈ 0.989 µg/mL) | converted to rhein | minimal | 83 × 10^-8 and 100 × 10^-8 | 
CC(=O)Oc1cccc2c1C(=O)c1c(OC(C)=O)cc(C(=O)OCCCCCl)cc1C2=O [HTB-04] | 2.04 (≈ 0.936 µg/mL) |  | 3.66 (≈ 1.68 µg/mL) | partially hydrolyzed to rhein; also recorded: inconclusive |  | 85 × 10^-8 | 6.23 µM and 3.51 µM
NNC(=O)c1ccncc1 [INH, isoniazid, reference compound] | > 292 |  | 142 (≈ 19.5 µg/mL) |  |  |  | 
O=C(O)c1cc(O)c2c(c1)C(=O)c1cccc(O)c1C2=O [Rhein, rhein] |  | no apparent activity |  | no apparent activity | no apparent activity |  | 
